From article PMC7934871 (JCI Insight, 2021)

System: pY705-STAT3
Experiment: Western blotting of p-STAT3 in HCT116 cells
Assay type: cell-based, human
Description: Figure 3 PS-acet.-STAT3 peptide inhibits STAT3 activity and downregulates the expression of STAT3 targets. (A) Downregulation of STAT3 activity and its downstream target proteins shown in human HCT116 colorectal cancer cells by Western blotting (data represent 1 of the 3 experiments, n = 3). PO-acet.-STAT3 and PS-STAT3-K685R peptides were used in parallel as controls. (B) STAT3 inhibition regulated the expression of proliferation and apoptotic genes, assessed by real-time quantitative PCR. Data present mean ± SD, n = 3 independent experiments, 1-way ANOVA; ***P < 0.005; **P < 0.01. […] For p53 promoter assay, data represent 3 replicates in 3 independent experiments (n = 9). For cell proliferation assay, data represent 3 independent experiments. SD is shown (n = 3). One-way ANOVA; ***P < 0.005; **P < 0.01.
Whole cell lysates or tissue homogenates were prepared by using RIPA lysis buffer (50 mM Tris at pH 7.4, 150 mM NaCl, 1 mM EDTA, 0.5% NP-40, 1 mM NaF, 15% glycerol, and 20 mM β-glycerophosphate). A protease inhibitor cocktail (Mini Protease Inhibitor Cocktail; Roche) and a tyrosine phosphatase inhibitor, sodium orthovanadate (Na3VO4, 1 mM), were added freshly to the lysis buffer. Protein amounts were determined by BCA using a Thermo Fisher Scientific kit. Normalized protein amounts were subjected to an SDS-PAGE and transferred onto a nitrocellulose membrane for Western blotting. […] The protein levels for STAT1 (sc-346, E-23), STAT3 (sc-482, C-20), STAT5 (sc-74442, A-9), Crm1 (exportin 1) (sc-5595, H-300), CAS (exportin 2) (sc-271537, H-2), exportin 5 (sc-66885, H-300), and exportin 7 (sc-98639, H-82) were determined using antibodies from Santa Cruz Biotechnology Inc. Anti–exportin 3 (exportin T, 630622, LOS1 05-1525), anti–exportin 4 (3499-1), and anti–exportin 6 (11408-1-AP) were from MilliporeSigma, Epitomics, and Proteintech, respectively. […]
Supplemental Figure 4 (related to Figure 1). […] Phosphorylation of STAT3 at Y705 and STAT5 at Y694 was detected by Western blotting after 48 hours treatment of PS-acet.-STAT3 peptide (1 µM) or napabucasin (1 µM) in HCT116 cells. […]

PDIPKEEAFGK685(Ac)YCRPESQEHPC-linker-T*C*C*A*T*G*A*G*C*T*T*C*C*T*G*A*T*G*C*T [PS-acet.-STAT3 peptide]
phosphorylated STAT3 (p-STAT3, Y705) level (HCT116, 1 µM, 48 hours): reduced
STAT3 activation (pY705-STAT3) (HCT116, approximately 1 μM): significant downregulation
